In patent publication US20160021879A1, “SYNTHETIC LIPOAMINO ACID GLUCOSAMINE DERIVATIVES FOR IMPROVEMENT OF PLANT GROWTH AND YIELD” (E.I. DU PONT DE NEMOURS AND COMPANY, priority 2013, published 2016):

Columns and labels:
soybean seeds [1] = experiment: Plant growth assay (radical length of germinated soybean seeds); format: in vivo; settings: control 55%; for percentage of germinated soybean seeds with radical length greater than 1.5 cm: 10^-7 M, germinated 24 h, then light for additional 40 h; for Growth Assay: summary table, seeds with radical length > 1.5 cm
Description: Seeds germinated for 24 h using the seed germination assay above were exposed to light for an additional 40 h. The radical length was measured and the percentage of germinating seeds with a radical length greater than 1.5 cm was determined.

soybean seeds [2] = experiment: Seed germination assay (soybean seeds in Petri dishes, radicle emergence counted); format: in vivo; settings: control 24%; for percent germination of treated soybean seeds: 10^-7 M in DI-water, at 20 h, dark, room temperature; for Germination Yield: summary table, 10^-7 M, 20 h
Description: Materials were all sterilized before use. An aqueous solution of the test compound (25 mL, 10^−7 M in DI-water) was prepared for a set of five repeat experiments. Five Petri dishes and 100 soybean seeds were used to test one compound. A piece of Whatman filter paper was used to cover the inner side of each Petri dish to allow uniform distribution of testing solution. Twenty soybean seeds were placed on the filter paper area of one Petri dish. Five mL of the test compound solution was carefully poured in the Petri dish. Control experiments were set up the same way with 20 soybean seeds and 5 mL of DI-water per dish without any compounds. The lid was placed on the Petri dish and sealed with Parafilm. Five dishes with repeat experiments were stacked. One stack of dishes was wrapped twice with aluminum foil to prevent the seeds from receiving any light. The stacks were transferred to an incubator maintained at room temperature and the seeds were germinated in the dark. After 20 h, the stacks were pulled out for measurement. The number of germinated seeds was counted and the percent germination on each dish was calculated. Radicle emergence was used as the germination indicator. The dishes were placed unwrapped at room temperature for one day and the number of germinated seeds was counted to ensure seeds were viable and that the germination results were not caused by poor seed quality. Dishes in which over 90% of the seeds germinated were considered normal. The standard deviation of five repeats was calculated. Test results with a 10% or lower standard deviation were considered good. Compounds acting as plant performance enhancers should promote a statistically significant increase in average percentage of germination compared to the control.

SMILES | percentage of germinated soybean seeds with radical length greater than 1.5 cm (soybean seeds [1]) | Growth Assay (soybean seeds [1]) | percent germination of treated soybean seeds (soybean seeds [2]) | Germination Yield (soybean seeds [2])
COC(=O)C(CCC(=O)NC1C(OC)OC(CO)C(O)C1O)NC(=O)/C=C/C=C/c1ccccc1 (centres unmarked) [Compound 15, methyl 5-{[4,5-dihydroxy-6-(hydroxymethyl)-2-methoxytetrahydro-2H-pyran-3-yl]amino}-5-oxo-2-{[(2E,4E)-5-phenylpenta-2,4-dienoyl]amino}pentanoate] | 74% | 74% | 31% | 31%
CO[C@@H]1O[C@H](CO)[C@@H](O)[C@H](O)[C@H]1NC(=O)[C@H](Cc1ccccc1)NC(=O)/C=C/C=C/c1ccccc1 [Compound 13, Methyl 2-deoxy-2-({N-[(2E,4E)-5-phenylpenta-2,4-dienoyl]phenylalanyl}amino)-β-D-glucopyranoside] | 80% | 80% | 32% | 32%
CCCCCC/C=C\CCCCCCCC(=O)NCC(=O)NC1C(OC)OC(CO)C(O)C1O [Compound 9, Methyl 2-deoxy-2-N-({[(9Z)-hexadec-9-enoylamino]acetyl}amino)-β-D-glucopyranoside] | 73% | 73% | 33% | 33%
CO[C@@H]1O[C@H](CO)[C@@H](O)[C@H](O)[C@H]1NC(=O)CNC(=O)/C=C/c1cccc(C(F)(F)F)c1 [Compound 17, methyl 2-deoxy-2-{[({(2E)-3-[3-(trifluoromethyl)phenyl]prop-2-enoyl}amino)acetyl]amino}-β-D-glucopyranoside] | 86% | 86% | 44% | 44%
CO[C@@H]1O[C@H](CO)[C@@H](O)[C@H](O)[C@H]1NC(=O)CNC(=O)/C=C/C=C/c1ccccc1 [Compound 11, methyl 2-deoxy-2-[({[(2E,4E)-5-phenylpenta-2,4-dienoyl]amino}acetyl)amino]-β-D-glucopyranoside] | 82% | 82% | 39% | 39%
CCCCCC/C=C\CCCCCCC/C=C/C(=O)NCC(=O)NC1C(OC)OC(CO)C(O)C1O (centres unmarked) [Compound 7, methyl 2-deoxy-2-({[(2E,11Z)-octadeca-2,11-dienoylamino]acetyl}amino)hexopyranoside] | 79% | 79% | 46% | 46%
COC1OC(CO)C(O)C(O)C1NC(=O)CNC(=O)C#Cc1ccccc1 [Compound 19, Methyl 2-deoxy-2-N-({[(3-phenylprop-2-ynoyl)amino]acetyl}amino)-β-D-glucopyranoside] | 71% | 71% | 30% | 30%
CCCCCC/C=C/CCCCCCC/C=C/C(=O)NCC(=O)NC1C(OC2C(CO)OC(OC3C(CO)OC(OC4C(CO)OC(OC)C(NC(C)=O)C4O)C(NC(C)=O)C3O)C(NC(C)=O)C2O)OC(CO)C(O)C1O [Compound 21, Methyl 2-deoxy-2-N-({[(2E,11E)-octadeca-2,11-dienoylamino]acetyl}amino)β-D-glucopyranosyl(1→4)-2-acetamido-2-deoxy-β-D-glucopyranosyl-(1→4)-2 acetamido-2-deoxy-β-D-glucopyranosyl-(1→4)-2 acetamido-2-deoxy-β-D-glucopyranoside] | 73% | 73% | 36% | 36%
